Assay results reported in patent US20030220201A1, “Method and device for the generation of cyclopropene compounds” (priority 2002, published 2003).

Assays:
Assay type in all cases: physicochemical
[1] = Release of 1-MCP by gas sparge, large scale, 3.3% complex, conical bottom vessel (Example 4); conditions: 182 g 3.3% complex in 8 liters water, air 204 liters/hour, 22° C.
Protocol: One hundred eighty two grams of a 3.3% concentration of a 1-MCP/α-CD powder complex was placed in an 11 liter plastic vessel having a conical shaped bottom (at a 60 degree angle from horizontal). To the vessel was then added 8 liters of water. The vessel was fitted with a Kordon Mist Air® fine air diffuser (Novalek, Inc., Hayward, Calif.) hooked to a Sensidyne AP060SEEF60C1 air pump (available from Sensidyne Inc., Clearwater, Fla. which was set at a pumping rate of 204 liters of air/hour. The vessel was covered and then fitted with an outlet tube through which all of the vented air passed. The temperature was set at 22° C.
After the pump was turned on, the exiting air was sampled periodically for 1-MCP content. Analysis was by gas chromatography using a flame ionization detector.

[2] = Release of 1-MCP by gas sparge, small scale (Example 2); conditions: 50 g 0.14% complex in 250 ml water, air 100 liters/hour
Protocol: Fifty grams of a 0.14% 1-MCP/α-CD complex in powdered form was placed into a 600 ml beaker which contained 250 ml of water. Also present in the beaker is a 10 inch long segment of Bubble Wall air diffusers (IPSD, Inc. San Diego, Calif.). This was connected to a Tetratec® air pump (Tetra Co., Blacksburg, Va.) via flexible connective tubing. The pump was set at a rate of 100 liters/hour. This system was then placed in a 36 liter Plexiglas airtight chamber fitted with a septum for inserting a syringe for gas sampling.
After the chamber was sealed, the pump was turned on to sparge gas through the aqueous suspension. The air in the chamber was sampled periodically to determine the rate of 1-MCP released. Analysis was performed by gas chromatography using a flame ionization detector.

[3] = Release of 1-MCP from 1-MCP/α-CD complex in water, fountain pump (Example 1); conditions: 50 g 0.14% 1-MCP/α-CD complex in 250 ml water, pump approx. 200 liters/hour, 22° C.
Protocol: (§1) Fifty grams of 0.14% concentration of 1-MCP/α-CD complex in powdered form was placed into a 1000 ml beaker which also contained 250 ml of water. Into the beaker was also placed a Mini Jet® MN404 submersible pump (available from IPSD, Inc., San Diego, Calif.) which was set at a flow rate of approximately 200 liters/hour. This system was then placed into a 36 liter Plexiglas airtight chamber fitted with a septum for inserting a syringe for gas sampling. The temperature was set at 22° C.
(§2) After the chamber was sealed, the pump was turned on, creating a fountain-type flow in the beaker. The atmosphere of the chamber was sampled periodically to monitor the release of 1-MCP. The analysis was performed by gas chromatography using a flame ionization detector.

[4] = Release of 1-MCP by gas sparge, large scale, 0.14% complex (Example 3); conditions: 3400 g 0.14% complex in 11 liters water, air 400 liters/hour, 22° C.
Protocol: Thirty four hundred grams of a 0.14% 1-MCP/α-CD complex in powdered form was placed into a 20 liter plastic vessel containing 11 liters of water and a 56 inch segment of a Bubble Wall air diffuser (IPSD, Inc., San Diego, Calif.). The air diffuser is hooked to a Pro Gold® Profile 400 air pump via flexible connective tubing. The pump was set at the rate of 400 liters of air/hour. The temperature was set at 22° C.
The vessel was covered and fitted with an outlet tube through which all of the escaping air had to pass. After the pump was turned on, the air exiting the vessel was sampled periodically for 1-MCP content. Analysis was by gas chromatography using a flame detector.

[5] = Release of 1-MCP from 1-MCP/α-CD complex in water, Comparative 2 (stir bar); conditions: 50 g 0.14% complex in 250 ml water, constant magnetic stir bar, no pump
Protocol: as §1, §2
(§3) This procedure was repeated twice without using the pump for comparison purposes. The first comparison involved mixing the powdered suspension by swirling the contents of the beaker for 30 seconds, every 5 minutes. The second comparison involved using a 2 inch magnetic stir bar and a stir plate instead a pump to constantly mix the suspension.

[6] = Release of 1-MCP from 1-MCP/α-CD complex in water, Comparative 1 (mix every 5 min.); conditions: 50 g 0.14% complex in 250 ml water, swirling 30 seconds every 5 minutes, no pump
Protocol: as §1, §2, §3

## CC1=CC1 [1-MCP, 1-methylcyclopropene]
[1]; Time 1.0 hrs.
  Percent 1-MCP Released (gas sparge): 85%
[1]; Time 1.85 hrs.
  Percent 1-MCP Released (gas sparge): 100%
[2]; Time 0.17 Hrs
  Percent 1-MCP Released (gas sparge): 42%
[2]; Time 0.42 Hrs
  Percent 1-MCP Released (gas sparge): 58%
[2]; Time 0.75 Hrs
  Percent 1-MCP Released (gas sparge): 75%
[2]; Time 1.0 Hrs
  Percent 1-MCP Released (gas sparge): 83%
[2]; Time 2.0 Hrs
  Percent 1-MCP Released (gas sparge): 92%
[3]; Time 0.08
  Percent 1-MCP Released Fountain Pump: 14%
[3]; Time 0.17
  Percent 1-MCP Released Fountain Pump: 43%
[3]; Time 0.42
  Percent 1-MCP Released Fountain Pump: 57%
[3]; Time 1.0
  Percent 1-MCP Released Fountain Pump: 79%
[3]; Time 1.5
  Percent 1-MCP Released Fountain Pump: 86%
[3]; Time 2.5 (hours)
  Percent 1-MCP Released Fountain Pump: 90%
[4]; Time 0.17 hrs.
  Percent 1-MCP Released (gas sparge): 12%
[4]; Time 0.33 hrs.
  Percent 1-MCP Released (gas sparge): 29%
[4]; Time 0.5 hrs.
  Percent 1-MCP Released (gas sparge): 48%
[4]; Time 0.75 hrs.
  Percent 1-MCP Released (gas sparge): 70%
[4]; Time 1.0 hrs.
  Percent 1-MCP Released (gas sparge): 84%
[4]; Time 1.25 hrs.
  Percent 1-MCP Released (gas sparge): 92%
[4]; Time 1.5 hrs.
  Percent 1-MCP Released (gas sparge): 96%
[4]; Time 2.0 hrs.
  Percent 1-MCP Released (gas sparge): 100%
[5]; Time 0.17
  Percent 1-MCP Released Comparative 2 (stir bar): 4%
[5]; Time 0.42
  Percent 1-MCP Released Comparative 2 (stir bar): 6%
[5]; Time 1.0
  Percent 1-MCP Released Comparative 2 (stir bar): 9%
[5]; Time 1.5
  Percent 1-MCP Released Comparative 2 (stir bar): 14%
[5]; Time 2.5
  Percent 1-MCP Released Comparative 2 (stir bar): 21%
[5]; Time 5.5 (hours)
  Percent 1-MCP Released Comparative 2 (stir bar): 43%
[6]; Time 0.17
  Percent 1-MCP Released Comparative 1 (mix every 5 min.): 4%
[6]; Time 0.42
  Percent 1-MCP Released Comparative 1 (mix every 5 min.): 6%
[6]; Time 1.0
  Percent 1-MCP Released Comparative 1 (mix every 5 min.): 9%
[6]; Time 3.0
  Percent 1-MCP Released Comparative 1 (mix every 5 min.): 14%
[6]; Time 4.0
  Percent 1-MCP Released Comparative 1 (mix every 5 min.): 16%
[6]; Time 5.5 (hours)
  Percent 1-MCP Released Comparative 1 (mix every 5 min.): 17%
